Test results taken from PMC8596132 (Advanced Science, 2021).
Where two headings read alike, the source gives them in different places. Bridge positions count the residues as written; N and C are the ends. Peptide text beside a SMILES is read from it.

Assays:
[1] = molecular target: T1, mouse TRPM8 channel (Mus musculus, UniProt Q8R4D5); assay: whole-cell patch-clamp recording, menthol activation of TRPM8; assay type: cell-based
T1 construct: expressed in transfected cells; host or cells: HEK293 / HEK293T cells
T1 sequence (Q8R4D5 whole entry): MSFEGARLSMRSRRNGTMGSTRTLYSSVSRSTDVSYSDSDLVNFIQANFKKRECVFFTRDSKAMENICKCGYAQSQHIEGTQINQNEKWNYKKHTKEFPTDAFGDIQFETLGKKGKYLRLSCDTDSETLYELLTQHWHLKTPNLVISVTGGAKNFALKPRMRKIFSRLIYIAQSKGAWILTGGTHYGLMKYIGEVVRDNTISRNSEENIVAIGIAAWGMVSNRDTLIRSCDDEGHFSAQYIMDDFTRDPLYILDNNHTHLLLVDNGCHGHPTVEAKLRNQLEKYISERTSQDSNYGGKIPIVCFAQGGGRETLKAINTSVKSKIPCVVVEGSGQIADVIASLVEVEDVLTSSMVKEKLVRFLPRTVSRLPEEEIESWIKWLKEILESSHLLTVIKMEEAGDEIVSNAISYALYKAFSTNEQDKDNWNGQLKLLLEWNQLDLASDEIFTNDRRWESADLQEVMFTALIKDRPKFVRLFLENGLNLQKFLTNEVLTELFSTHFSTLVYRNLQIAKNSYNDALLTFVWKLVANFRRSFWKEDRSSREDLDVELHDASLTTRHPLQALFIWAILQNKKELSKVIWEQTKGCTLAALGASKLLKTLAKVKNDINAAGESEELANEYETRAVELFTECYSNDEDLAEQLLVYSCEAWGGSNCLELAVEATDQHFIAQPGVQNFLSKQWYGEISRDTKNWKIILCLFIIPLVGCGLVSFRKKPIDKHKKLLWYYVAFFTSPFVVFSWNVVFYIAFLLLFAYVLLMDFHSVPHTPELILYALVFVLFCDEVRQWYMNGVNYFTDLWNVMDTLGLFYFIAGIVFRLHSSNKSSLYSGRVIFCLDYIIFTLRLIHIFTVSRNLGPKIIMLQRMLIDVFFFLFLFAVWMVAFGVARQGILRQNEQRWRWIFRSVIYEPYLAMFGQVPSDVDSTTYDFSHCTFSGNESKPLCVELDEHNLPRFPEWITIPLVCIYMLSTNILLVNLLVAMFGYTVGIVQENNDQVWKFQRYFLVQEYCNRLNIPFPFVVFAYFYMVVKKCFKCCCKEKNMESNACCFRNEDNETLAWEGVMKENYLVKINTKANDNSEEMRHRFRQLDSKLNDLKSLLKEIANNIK
Method: HEK293T cells were cultured in Dulbecco's modified Eagle's medium with 10% fetal bovine serum, penicillin (100 U mL^−1), and streptomycin ([…]) at 37 °C with 5% CO2. Transient transfection was conducted by using Lipofectamine 2000 (Invitrogen) and following the instruction manual.
(§1) Electrophysiological experiments were performed between 24 and 48 h after transfections. Specifically, single‐channel recordings were conducted about […] after transfection.
Patch‐clamp recordings were performed with a HEKA EPC10 amplifier with PatchMaster software (HEKA) in the whole‐cell, inside‐out, or outside‐out configuration. For whole cell recordings, patch pipettes were prepared from borosilicate glass and fire‐polished to a resistance of ≈3–6 MΩ. Serial resistance was compensated by 60%. Whole‐cell recordings were performed at ±80 mV. For single‐channel recordings, patch pipettes were fire‐polished to a higher resistance of 6–8 MΩ. Current signal was sampled at 10 kHz and filtered at 2.9 kHz. […]
(§2) There were different solutions prepared for different ion channels current recordings. […] TRPM2 currents were recorded with the help of standard bath solution of 147 × 10^−3 M NaCl, 2 × 10^−3 M KCl, 1 × 10^−3 M MgCl2, 10 × 10^−3 M HEPES, 2 × 10^−3 M CaCl2, 13 × 10^−3 M glucose, pH = 7.4 and the pipette solutions of 147 × 10^−3 M NaCl, 1 × 10^−3 M MgCl2, 10 × 10^−3 M HEPES, pH = 7.4. […]

[2] = body temperature measurement; assay type: in vivo; settings: mice, i.v. 30 µg g^−1, rectal temperature up to 24 h, 5-9 animals
Method: Adult CD1 mice (male, 6–8 weeks) were used for behavioral and primary cultures of DRG neurons studies. Mice were group‐housed under the 12 h light‐dark cycle with access to standard food and water ad libitum. All the animal procedures were approved by the Institutional Animal Care & Use Committee (IACUC) of Zhejiang University.
A digital thermometer (FT3400) was used for body temperature measurement. Adult CD1 male mice were placed into an environmental room maintained at a constant temperature of 22 ± 1 °C. Body temperature was recorded using a rectal probe for mice (FT3400), which was inserted ≈2 cm from the anus. Body temperature was measured before treatment (baseline, BL) and at 5 min, 15 min, 0.5,1,2, 6, and 24 h following DeC‐1.2 (30 mg kg^−1, i.v.) administration.

[3] = molecular target: T2, TRPV2 (Homo sapiens, UniProt Q9Y5S1); assay: whole-cell recording, TRPV2 ligand activation; assay type: cell-based; settings: read-out: IC50, inhibition of TRPV2
T2 construct: expressed in transfected cells; host or cells: HEK293T
T2 sequence (Q9Y5S1 1-764): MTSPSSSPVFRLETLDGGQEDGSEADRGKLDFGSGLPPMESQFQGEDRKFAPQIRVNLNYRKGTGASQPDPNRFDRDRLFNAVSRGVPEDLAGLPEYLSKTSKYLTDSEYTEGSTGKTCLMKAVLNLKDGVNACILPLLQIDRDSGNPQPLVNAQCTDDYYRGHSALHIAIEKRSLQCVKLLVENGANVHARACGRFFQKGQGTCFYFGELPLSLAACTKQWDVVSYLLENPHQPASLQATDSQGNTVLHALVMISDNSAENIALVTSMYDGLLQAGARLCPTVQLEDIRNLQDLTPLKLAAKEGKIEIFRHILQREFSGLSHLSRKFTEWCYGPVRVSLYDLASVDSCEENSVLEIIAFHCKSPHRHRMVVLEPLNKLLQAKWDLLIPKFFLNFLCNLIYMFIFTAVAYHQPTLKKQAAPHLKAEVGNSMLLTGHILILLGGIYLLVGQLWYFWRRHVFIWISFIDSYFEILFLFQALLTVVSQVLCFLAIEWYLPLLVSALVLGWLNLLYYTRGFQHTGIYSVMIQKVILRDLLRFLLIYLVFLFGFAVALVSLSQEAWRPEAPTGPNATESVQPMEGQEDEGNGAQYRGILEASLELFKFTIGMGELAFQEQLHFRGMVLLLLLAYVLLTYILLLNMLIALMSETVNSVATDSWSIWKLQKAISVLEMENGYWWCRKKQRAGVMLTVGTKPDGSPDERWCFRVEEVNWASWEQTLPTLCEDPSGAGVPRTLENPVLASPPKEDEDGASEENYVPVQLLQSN
Method: (§3) Patch‐clamp recordings were performed with a HEKA EPC10 amplifier with PatchMaster software (HEKA) in the whole‐cell, inside‐out, or outside‐out configuration. For whole cell recordings, patch pipettes were prepared from borosilicate glass and fire‐polished to a resistance of ≈3–6 MΩ. Serial resistance was compensated by 60%. Whole‐cell recordings were performed at ±80 mV. For single‐channel recordings, patch pipettes were fire‐polished to a higher resistance of 6–8 MΩ. Current signal was sampled at 10 kHz and filtered at 2.9 kHz. Membrane potential was clamped at +80 mV. All recordings were performed at room temperature (22 °C) with the maximum variation of 1 °C.
as §2, with “recordings. For TRPM8, TRPV1, TRPV2, TRPV3, and TRPA1 channels recording, the standard bath and pipette solution contained: 130 × 10^−3 M NaCl, 0.2 × 10^−3 M EDTA, and 3 × 10^−3 M HEPES, pH = 7.2. For TRPM4 channels recording, solutions with 130 × 10^−3 M NaCl and 3 × 10^−3 M HEPES, pH = 7.2 were used as standard bath solution.” for “recordings.”

[4] = molecular target: T3, TRPM8 channel (Mus musculus, UniProt Q8R4D5); assay: single-channel patch-clamp recording, menthol activation (outside-out); assay type: cell-based; settings: +80 mV
T3 construct: expressed in transfected cells; host or cells: HEK293 / HEK293T cells
T3 sequence (Q8R4D5 whole entry): as the sequence (Q8R4D5 whole entry) above
Method: as §1, §3
There were different solutions prepared for different ion channels current recordings. For TRPM8, TRPV1, TRPV2, TRPV3, and TRPA1 channels recording, the standard bath and pipette solution contained: 130 × 10^−3 M NaCl, 0.2 × 10^−3 M EDTA, and 3 × 10^−3 M HEPES, pH = 7.2. For TRPM4 channels recording, solutions with 130 × 10^−3 M NaCl and 3 × 10^−3 M HEPES, pH = 7.2 were used as standard bath solution. The pipette solutions required 500 × 10^−6 M CaCl2 mixing with 130 × 10^−3 M NaCl and 3 × 10^−3 M HEPES, pH = 7.2. TRPM2 currents were recorded with the help of standard bath solution of 147 × 10^−3 M NaCl, 2 × 10^−3 M KCl, 1 × 10^−3 M MgCl2, 10 × 10^−3 M HEPES, 2 × 10^−3 M CaCl2, 13 × 10^−3 M glucose, pH = 7.4 and the pipette solutions of 147 × 10^−3 M NaCl, 1 × 10^−3 M MgCl2, 10 × 10^−3 M HEPES, pH = 7.4. For NaV1.5, NaV1.7 channels, the standard bath solution was 140 × 10^−3 M NaCl, 3 × 10^−3 M KCl, 1 × 10^−3 M MgCl2, 1 × 10^−3 M CaCl2, 10 × 10^−3 M HEPES, pH = 7.2 and standard pipette solution was 140 × 10^−3 M CsF, 1 × 10^−3 M EGTA, 10× 10^−3 M NaCl, 10 × 10^−3 M MgCl2, 3 × 10^−3 M KCl, pH = 7.2. To evoke sodium channel currents, a holding potential of −80 mV was used with a testing pulse to +10 mV. […]

## C[C@@H]1NC(=O)[C@H](C)NC(=O)[C@H](CCCNC(=N)N)NC(=O)[C@H](CO)NC(=O)[C@H](CC(N)=O)NC(=O)[C@H](CCCNC(=N)N)NC(=O)[C@@H](N)CSSC[C@@H](C(=O)O)NC(=O)[C@H](CCCCN)NC(=O)[C@H](CCC(N)=O)NC(=O)[C@H](CO)NC(=O)[C@H](CC(=O)O)NC(=O)[C@H](Cc2c[nH]cn2)NC1=O [DeC‐1.1] (H-CRNSRAAHDSQKC-OH; disulfide 1-13)
[1]; SEM
  IC50: 133 ± 73.5 µM

## C[C@@H]1NC(=O)[C@H](CCCNC(=N)N)NC(=O)[C@H](CC(=O)O)NC(=O)[C@H](CCCNC(=N)N)NC(=O)[C@H](CCCNC(=N)N)NC(=O)[C@@H](N)CSSC[C@@H](C(=O)O)NC(=O)[C@H](CCCNC(=N)N)NC(=O)[C@H](CCC(N)=O)NC(=O)[C@H](CCCNC(=N)N)NC(=O)[C@H](Cc2ccc(O)cc2)NC(=O)[C@H](Cc2c[nH]cn2)NC(=O)[C@H](CCCNC(=N)N)NC1=O [DeC‐1.2] (H-CRRDRARHYRQRC-OH; disulfide 1-13)
[2]
  effect on body temperature: did not significantly alter body temperature
[1]; whole-cell patch clamp, TRPM8 expressed in HEK293 cells, −80 mV, 22 °C, n = 3, mean ± SEM, read-out: IC50, inhibition of menthol-induced TRPM8 activation
  IC50: 0.0045 ± 0.003 µM
[3]
  IC50: ~10 µM
[4]; outside-out, menthol 1 × 10^−3 M + DeC-1.2 100 × 10^−6 M, mean ± SEM, n = 5, SEM
  open probability of TRPM8 with DeC-1.2 plus menthol: 18.83 ± 1.92%

## CC1CCC(C(C)C)C(O)C1 (stereo not shown) [menthol]
[4]; saturating menthol 1 × 10^−3 M alone
  maximum open probability of TRPM8 activation by menthol: about 70%
[4]; saturating menthol 1 × 10^−3 M alone, mean ± SEM, n = 3, SEM
  single-channel conductance of TRPM8 with menthol: 58.83 ± 1.85 pS
